Source: patent EP4088745A1, “COMPOUND FOR THE DIAGNOSIS OF CANCER” (Eberhard Karls Universität Tübingen Medizinische Fakultät, priority 2021, dated 2022)

Columns and labels:
HCC1937 cells [1] = experiment: Competition assay of radiotracer uptake; type: cell-based, Human; conditions: 1:2 serial dilution starting at 1µM; Fig. 11
Method: Human breast carcinoma cells (HCC1937, ACC513) were purchased from the German Collection of Microorganisms and Cell Cultures (DSMZ GmbH, Braunschweig, Germany) and cultured in Roswell Park Memorial Institute (RPMI) 1640 medium supplemented with 16 % fetal calf serum (FCS), 100 U/ml penicillin and 100 µg/ml streptomycin at 37°C under humid 5 % CO2 atmosphere. Absence of mycoplasma infection was confirmed by PCR analysis in monthly intervals. […] After 30 min of incubation at 37°C, the cells were washed by vacuum filtration of medium through the plate (2×100 µl followed by 2×200 µl), the filters were transferred into tubes using a commercial punch kit (MAMP09608, Merck) and measured in a gamma counter (Wizard 2, Perkin-Elmer, Waltham, MA, USA). Experiments were performed in triplicates and the uptake was quantified as percent of added activity.

HCC1937 cells [2] = experiment: In vitro radiotracer uptake; type: cell-based, Human
Method: Human breast carcinoma cells (HCC1937, ACC513) were purchased from the German Collection of Microorganisms and Cell Cultures (DSMZ GmbH, Braunschweig, Germany) and cultured in Roswell Park Memorial Institute (RPMI) 1640 medium supplemented with 16 % fetal calf serum (FCS), 100 U/ml penicillin and 100 µg/ml streptomycin at 37°C under humid 5 % CO2 atmosphere. Absence of mycoplasma infection was confirmed by PCR analysis in monthly intervals.
After 30 min of incubation at 37°C, the cells were washed by vacuum filtration of medium through the plate (2×100 µl followed by 2×200 µl), the filters were transferred into tubes using a commercial punch kit (MAMP09608, Merck) and measured in a gamma counter (Wizard 2, Perkin-Elmer, Waltham, MA, USA). Experiments were performed in triplicates and the uptake was quantified as percent of added activity.

[3] = Serum stability analysis in mouse serum; type: in vitro ADME; conditions: over a time course of 240 minutes; Fig 7 B
[4] = Serum stability analysis in human serum; type: in vitro ADME; conditions: over a time course of 240 minutes; Fig 7 B
HCC1937 xenograft = experiment: PET imaging and ex vivo biodistribution in xenograft-bearing mice
Method: All animal experiments were performed according to the German animal welfare act and approved by the local authorities (Regierungsprasidium Tübingen, R3/18). Animals were housed in individually ventilated cages (IVCs, 5 mice per cage) with bedding and enrichment, and food and water was provided ad libitum. Animals were kept under isoflurane anesthetic (1.5 % in pure oxygen, 1.5 l/min) during the experiments. 1×10^7 cells in 1:1 ice-cold Matrigel (Thermo Scientific) / PBS were injected subcutaneously in the right shoulder area of 7 week-old female NOD.CB17-Prkdc^scid/J mice (n = 5). […] The mice underwent a second, 10 min static PET scan 2 h post-injection (p.i.). Mice were sacrificed by cervical dislocation, the collected organs were weighed and the tissue uptake was determined by gamma-counting (WIZARD2, PerkinElmer). PET image reconstruction and correlation with MR images was performed with Inveon Acquisition Workplace and Inveon Research Workplace, respectively, using a user-defined dynamic framing and an ordered subset expectation maximization (OSEM3D) algorithm. Regions of interest (ROIs) were drawn according to the acquired MR images and co-registered with the PET data to obtain time-activity curves (TACs).
Statistical analyses were performed with GraphPad Prism 9 using non-parametric t-tests and are represented as mean value ± standard deviation. Blood half-life was calculated using a two-phase decay fit. P-values < 0.05 were considered statistically significant according to the software (*: p < 0.05, **: p < 0.01, ***: p < 0.001, ****: p < 0.0001).

SMILES	blocking of the [^18F]talazoparib signal compared to olaparib (HCC1937 cells [1])	uptake in HCC1937 cells (HCC1937 cells [2]; 30 min incubation at 37°C, Fig. 7A)	uptake blocked by excess olaparib and talazoparib (HCC1937 cells [2]; blocking with olaparib or talazoparib, final concentration 25 µM)	Stability in mouse serum [3]	Stability in human serum [4]	absolute xenograft uptake (HCC1937 xenograft; biodistribution analysis 2.5 h p.i., n = 5)	calculated blood half-life (HCC1937 xenograft; blood TAC, two-phase decay fit)	uptake in the brain tissue (HCC1937 xenograft; mouse, in vivo)
Cn1ncnc1[C@H]1c2n[nH]c(=O)c3cc(F)cc(c23)N[C@@H]1c1ccc(F)cc1 [talazoparib, (8S,9R)-5-Fluoro-8-(4-fluorophenyl)-2,7,8,9-tetrahydro-9-(1-methyl-1H-1,2,4-triazol-5-yl)-3H-pyrido[4,3,2-de]phthalazin-3-one]	blocked the signal more effective							
Cn1ncnc1[C@H]1c2n[nH]c(=O)c3cc(F)cc(c23)N[C@@H]1c1ccc([18F])cc1 [[^18F] talazoparib, (8S,9R)-5-Fluoro-8-(4-^18fluorophenyl)-2,7,8,9-tetrahydro-9-(1-methyl-1H-1,2,4-triazol-5-yl)-3H-pyrido[4,3,2-de]phthalazin-3-one]		high uptake	blockable to baseline	no radiometabolite was detected	no radiometabolite was detected	3.7 ± 0.71 %ID/g	3.3 min	very low uptake
